Experimental data reported in PubChem BioAssay (NCI).
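Five concentrations, 48 hours, 96-well plates. GI50 = concentration required for 50% inhibition of growth. Definition used: TGI = concentration required for complete inhibition of growth.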

What was measured:
Assay in all cases: DTP human tumour cell line panel, 48 h
A498 renal = test system: A498 renal
SF-268 CNS = test system: SF-268 CNS
NCI-H226 lung = test system: NCI-H226 lung
T-47D breast = test system: T-47D breast
OVCAR-3 ovarian = test system: OVCAR-3 ovarian
SNB-75 CNS = test system: SNB-75 CNS
MDA-MB-231 breast = test system: MDA-MB-231 breast
HS 578T breast = test system: HS 578T breast
PC-3 prostate = test system: PC-3 prostate
SN12C renal = test system: SN12C renal
COLO 205 colon = test system: COLO 205 colon
HL-60(TB) leukemia = test system: HL-60(TB) leukemia
NCI-H460 lung = test system: NCI-H460 lung
K-562 leukemia = test system: K-562 leukemia
MOLT-4 leukemia = test system: MOLT-4 leukemia
SK-MEL-2 melanoma = test system: SK-MEL-2 melanoma
RXF 393 renal = test system: RXF 393 renal
HCT-116 colon = test system: HCT-116 colon
DU-145 prostate = test system: DU-145 prostate
OVCAR-8 ovarian = test system: OVCAR-8 ovarian
OVCAR-5 ovarian = test system: OVCAR-5 ovarian
CCRF-CEM leukemia = test system: CCRF-CEM leukemia
UACC-257 melanoma = test system: UACC-257 melanoma
SK-MEL-28 melanoma = test system: SK-MEL-28 melanoma
UO-31 renal = test system: UO-31 renal
SF-295 CNS = test system: SF-295 CNS
MALME-3M melanoma = test system: MALME-3M melanoma
BT-549 breast = test system: BT-549 breast
HCC-2998 colon = test system: HCC-2998 colon
HT29 colon = test system: HT29 colon
SK-OV-3 ovarian = test system: SK-OV-3 ovarian
TK-10 renal = test system: TK-10 renal
RPMI-8226 leukemia = test system: RPMI-8226 leukemia
LOX IMVI melanoma = test system: LOX IMVI melanoma
M14 melanoma = test system: M14 melanoma
786-0 renal = test system: 786-0 renal
SK-MEL-5 melanoma = test system: SK-MEL-5 melanoma
HCT-15 colon = test system: HCT-15 colon
HOP-92 NSCLC = test system: HOP-92 NSCLC
ACHN renal = test system: ACHN renal
A549 NSCLC = test system: A549 NSCLC
U251 CNS = test system: U251 CNS
OVCAR-4 ovarian = test system: OVCAR-4 ovarian
SR leukemia = test system: SR leukemia
HOP-62 NSCLC = test system: HOP-62 NSCLC
SNB-19 CNS = test system: SNB-19 CNS
MDA-MB-435 = test system: MDA-MB-435
UACC-62 melanoma = test system: UACC-62 melanoma
CAKI-1 renal = test system: CAKI-1 renal
SF-539 CNS = test system: SF-539 CNS
NCI-H522 lung = test system: NCI-H522 lung
IGROV1 ovarian = test system: IGROV1 ovarian
MCF7 breast = test system: MCF7 breast
KM12 colon = test system: KM12 colon
EKVX NSCLC = test system: EKVX NSCLC
SW-620 colon = test system: SW-620 colon
NCI-H23 lung = test system: NCI-H23 lung
NCI/ADR-RES ovarian = test system: NCI/ADR-RES ovarian

## CCN(C(=O)N1CCN(c2cc3c(cc2F)c(=O)c(C(=O)O)cn3C2CC2)CC1)c1nc(-c2ccc(Cl)cc2)cs1
A498 renal
  GI50: 29.8 nM
  TGI: 1600 nM
SF-268 CNS
  GI50: 1280 nM
  TGI: > 100000 nM
NCI-H226 lung
  GI50: 1790 nM
  TGI: 5200 nM
T-47D breast
  GI50: 1990 nM
  TGI: > 100000 nM
OVCAR-3 ovarian
  GI50: 1220 nM
  TGI: > 100000 nM
SNB-75 CNS
  GI50: 1370 nM
  TGI: 9320 nM
MDA-MB-231 breast
  GI50: 1690 nM
  TGI: 6350 nM
HS 578T breast
  GI50: 1260 nM
  TGI: 13000 nM
PC-3 prostate
  GI50: 858 nM
  TGI: > 26000 nM
SN12C renal
  GI50: 991 nM
  TGI: > 100000 nM
COLO 205 colon
  GI50: 2000 nM
  TGI: 6170 nM
HL-60(TB) leukemia
  GI50: 669 nM
  TGI: 1770 nM
NCI-H460 lung
  GI50: 960 nM
  TGI: > 100000 nM
K-562 leukemia
  GI50: 1130 nM
  TGI: > 100000 nM
MOLT-4 leukemia
  GI50: 542 nM
  TGI: 3670 nM
SK-MEL-2 melanoma
  GI50: 2120 nM
  TGI: 5390 nM
RXF 393 renal
  GI50: 978 nM
  TGI: 7510 nM
HCT-116 colon
  GI50: 1100 nM
  TGI: > 100000 nM
DU-145 prostate
  GI50: 1830 nM
  TGI: > 100000 nM
OVCAR-8 ovarian
  GI50: 1310 nM
  TGI: > 100000 nM
OVCAR-5 ovarian
  GI50: 2620 nM
  TGI: > 100000 nM
CCRF-CEM leukemia
  GI50: 2450 nM
  TGI: > 100000 nM
UACC-257 melanoma
  GI50: 2530 nM
  TGI: 7300 nM
SK-MEL-28 melanoma
  GI50: 1910 nM
  TGI: > 100000 nM
UO-31 renal
  GI50: 986 nM
  TGI: > 20500 nM
SF-295 CNS
  GI50: 888 nM
  TGI: 6000 nM
MALME-3M melanoma
  GI50: 1380 nM
  TGI: 5950 nM
BT-549 breast
  GI50: 1020 nM
  TGI: 5610 nM
HCC-2998 colon
  GI50: 2830 nM
  TGI: > 28600 nM
HT29 colon
  GI50: 1060 nM
  TGI: > 100000 nM
SK-OV-3 ovarian
  GI50: 1830 nM
  TGI: 6460 nM
TK-10 renal
  GI50: 2890 nM
  TGI: > 51900 nM
RPMI-8226 leukemia
  GI50: 838 nM
  TGI: 3170 nM
LOX IMVI melanoma
  GI50: 370 nM
  TGI: 1630 nM
M14 melanoma
  GI50: 2120 nM
  TGI: > 100000 nM
786-0 renal
  GI50: 2410 nM
  TGI: 15400 nM
SK-MEL-5 melanoma
  GI50: 1990 nM
  TGI: 15900 nM
HCT-15 colon
  GI50: 967 nM
  TGI: > 100000 nM
HOP-92 NSCLC
  GI50: 825 nM
  TGI: 4800 nM
ACHN renal
  GI50: 1240 nM
  TGI: 10100 nM
A549 NSCLC
  GI50: 1010 nM
  TGI: > 100000 nM
U251 CNS
  GI50: 1150 nM
  TGI: 29700 nM
OVCAR-4 ovarian
  GI50: 1480 nM
  TGI: > 57100 nM
SR leukemia
  GI50: 272 nM
  TGI: 897 nM
HOP-62 NSCLC
  GI50: 1600 nM
  TGI: 17700 nM
SNB-19 CNS
  GI50: 1090 nM
  TGI: 49500 nM
MDA-MB-435
  GI50: 1210 nM
  TGI: 7030 nM
UACC-62 melanoma
  GI50: 1130 nM
  TGI: 3550 nM
CAKI-1 renal
  GI50: 2170 nM
  TGI: 11400 nM
SF-539 CNS
  GI50: 1020 nM
  TGI: 3740 nM
NCI-H522 lung
  GI50: 1800 nM
  TGI: > 26500 nM
IGROV1 ovarian
  GI50: 538 nM
  TGI: 1790 nM
MCF7 breast
  GI50: 2970 nM
  TGI: > 100000 nM
KM12 colon
  GI50: 1290 nM
  TGI: > 100000 nM
EKVX NSCLC
  GI50: 2540 nM
  TGI: > 100000 nM
SW-620 colon
  GI50: 1830 nM
  TGI: > 100000 nM
NCI-H23 lung
  GI50: 1560 nM
  TGI: 8450 nM
NCI/ADR-RES ovarian
  GI50: 2070 nM
  TGI: 13700 nM
